# Measurements published in ChEMBL document CHEMBL3526017, “Predicting the drug interaction potential of AMG 853, a dual antagonist of the D-prostanoid and chemoattractant receptor-homologous molecule expressed on T helper 2 cells receptors” (Drug Metab Dispos, 2012).
# Legend:
# [1] = biological target: T1, UDP-glucuronosyltransferase 1A1 (Homo sapiens, UniProt P22309); assay: (§1) Drug metabolism assessed as human recombinant UGT1A1-mediated (2S,3S,4S,5R,6S)-6-(2-(4-(4-(tert-butylcarbamoyl)-2-(2-chloro-4-cyclopropylphenylsulfonamido)phenoxy)-5-chloro-2-fluorophenyl)acetoxy)-3,4,5-trihydroxytetrahydro-2H-pyran-2-carboxylic acid formation at 10 uM after 30 mins by LC-MS/MS analysis; type: ADME; details: recombinant enzyme, 0.5 h
# T1 sequence (P22309 whole entry): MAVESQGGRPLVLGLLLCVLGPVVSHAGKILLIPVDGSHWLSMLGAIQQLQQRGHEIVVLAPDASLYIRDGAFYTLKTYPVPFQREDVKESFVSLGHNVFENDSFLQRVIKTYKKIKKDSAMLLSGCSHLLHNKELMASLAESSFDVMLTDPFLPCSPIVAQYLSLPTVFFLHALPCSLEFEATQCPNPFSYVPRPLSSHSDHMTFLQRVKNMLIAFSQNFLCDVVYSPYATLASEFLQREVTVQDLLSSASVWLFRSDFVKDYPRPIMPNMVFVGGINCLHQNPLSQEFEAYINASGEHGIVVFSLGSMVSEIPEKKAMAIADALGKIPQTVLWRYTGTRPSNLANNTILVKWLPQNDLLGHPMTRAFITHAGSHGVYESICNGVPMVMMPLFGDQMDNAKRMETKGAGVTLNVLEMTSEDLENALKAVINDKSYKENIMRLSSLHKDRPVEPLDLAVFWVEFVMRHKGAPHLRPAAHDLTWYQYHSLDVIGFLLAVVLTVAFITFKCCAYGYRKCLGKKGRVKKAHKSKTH
# [2] = Drug metabolism in human liver microsomes assessed as CYP3A5*1/*1-mediated (2S,3S,4S,5R,6S)-6-(2-(4-(4-(tert-butylcarbamoyl)-2-(2-chloro-4-cyclopropylphenylsulfonamido)phenoxy)-5-chloro-2-fluorophenyl)acetoxy)-3,4,5-trihydroxytetrahydro-2H-pyran-2-carboxylic acid formation after 15 mins by LC-MS/MS analysis in presence of UDPGA and NADPH; type: ADME; details: 0.25 h
# [3] = biological target: UDP-glucuronosyltransferase 1A9 (Homo sapiens, UniProt O60656); assay: as §1, with “UGT1A9-mediated” for “UGT1A1-mediated”; type: ADME; details: recombinant enzyme, 0.5 h
# CYP2B6 = CYP2B6 (Homo sapiens, UniProt P20813); assay: Induction of CYP2B6 in human hepatocytes using bupropion as substrate at 0.3 to 30 uM treated every 24 hrs for 2 days measured on day 5 by LC-MS/MS analysis relative to control; type: ADME, cell-based, Hepatocyte; details: probe bupropion, read-out: FC
# Cytochrome P450 2C8 = biological target: T2, Cytochrome P450 2C8 (Homo sapiens, UniProt P10632); assay: Inhibition of CYP2C8 in human liver microsomes assessed as paclitaxel 6-hydroxylation after 5 to 30 mins by LC-MS/MS analysis; type: ADME
# T2 sequence (P10632 whole entry): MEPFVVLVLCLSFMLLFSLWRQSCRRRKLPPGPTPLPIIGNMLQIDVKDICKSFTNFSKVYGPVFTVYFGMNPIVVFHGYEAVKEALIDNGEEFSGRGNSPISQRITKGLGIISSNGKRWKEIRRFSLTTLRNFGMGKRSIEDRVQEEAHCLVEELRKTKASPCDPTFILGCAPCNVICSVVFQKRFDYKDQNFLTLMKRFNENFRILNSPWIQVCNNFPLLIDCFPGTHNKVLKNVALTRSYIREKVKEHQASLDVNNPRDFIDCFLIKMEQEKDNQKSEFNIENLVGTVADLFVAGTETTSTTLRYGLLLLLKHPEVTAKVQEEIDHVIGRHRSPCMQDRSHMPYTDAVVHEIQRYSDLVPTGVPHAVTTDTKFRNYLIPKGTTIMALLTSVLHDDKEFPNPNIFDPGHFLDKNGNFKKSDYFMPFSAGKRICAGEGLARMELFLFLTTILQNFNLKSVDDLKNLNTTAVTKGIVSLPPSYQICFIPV
# Liver microsome [4] = assay: Drug metabolism in human liver microsomes assessed as 2-(5-chloro-4-(2-(2-chloro-4-cyclopropylphenylsulfonamido)-4-(1-hydroxy-2-methylpropan-2-ylcarbamoyl)phenoxy)-2-fluorophenyl)acetic acid formation at 2 uM after 60 mins by LC-MS/MS analysis in presence of ketoconazole; type: ADME; details: 1 h
# Cytochrome P450 2J2 = biological target: T3, Cytochrome P450 2J2 (Homo sapiens, UniProt P51589); assay: Drug metabolism assessed as recombinant CYP2J2 (unknown origin)-mediated 2-(4-(4-(tert-butylcarbamoyl)-2-(2-chloro-4-(1-hydroxycyclopropyl)phenylsulfonamido)phenoxy)-5-chloro-2-fluorophenyl)acetic acid formation at 10 uM after 30 mins by LC-MS/MS analysis; type: ADME; details: recombinant enzyme, 0.5 h
# T3 sequence (P51589 whole entry): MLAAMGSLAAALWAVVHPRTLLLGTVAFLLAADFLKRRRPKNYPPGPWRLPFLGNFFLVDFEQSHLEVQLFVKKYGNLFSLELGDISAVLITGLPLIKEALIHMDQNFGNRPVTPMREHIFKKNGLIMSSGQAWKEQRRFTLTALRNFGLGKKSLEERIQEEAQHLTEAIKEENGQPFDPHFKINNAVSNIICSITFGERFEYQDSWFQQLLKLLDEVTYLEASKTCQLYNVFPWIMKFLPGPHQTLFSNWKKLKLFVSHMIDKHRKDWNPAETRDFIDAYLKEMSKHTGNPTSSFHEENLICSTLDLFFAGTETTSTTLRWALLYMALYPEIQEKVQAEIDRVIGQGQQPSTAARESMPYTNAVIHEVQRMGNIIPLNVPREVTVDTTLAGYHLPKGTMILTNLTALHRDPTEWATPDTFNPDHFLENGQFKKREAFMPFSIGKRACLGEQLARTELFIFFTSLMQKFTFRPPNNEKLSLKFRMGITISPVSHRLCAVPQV
# [5] = biological target: T4, UDP-glucuronosyltransferase 1A3 (Homo sapiens, UniProt P35503); assay: Drug metabolism assessed as human recombinant UGT1A3-mediated compound formation treated with AMG 853 after 45 mins by LC-MS/MS analysis in presence of UDPGA; type: ADME; details: recombinant enzyme, 0.75 h
# T4 sequence (P35503 whole entry): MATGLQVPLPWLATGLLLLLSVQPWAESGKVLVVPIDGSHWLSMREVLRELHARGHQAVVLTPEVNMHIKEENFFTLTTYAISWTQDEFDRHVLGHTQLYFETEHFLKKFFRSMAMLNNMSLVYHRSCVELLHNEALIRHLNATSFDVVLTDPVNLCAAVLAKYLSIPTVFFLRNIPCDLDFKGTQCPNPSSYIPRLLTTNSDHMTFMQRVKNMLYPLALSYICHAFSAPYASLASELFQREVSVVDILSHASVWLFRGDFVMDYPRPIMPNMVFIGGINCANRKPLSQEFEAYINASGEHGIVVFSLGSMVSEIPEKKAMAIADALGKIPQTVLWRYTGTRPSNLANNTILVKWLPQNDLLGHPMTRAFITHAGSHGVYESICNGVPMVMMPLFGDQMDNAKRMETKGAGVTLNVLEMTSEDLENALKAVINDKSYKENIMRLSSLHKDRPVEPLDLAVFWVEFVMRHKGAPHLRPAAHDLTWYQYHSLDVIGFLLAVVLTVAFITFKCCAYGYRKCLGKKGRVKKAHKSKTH
# Liver microsome [6] = assay: Drug metabolism in human liver microsomes treated with AMG 853 after 45 mins by LC-MS/MS analysis in presence of UDPGA; type: ADME; details: 0.75 h
# [7] = Drug metabolism in human liver microsomes assessed as CYP3A5*1/*1-compound formation after 15 mins by LC-MS/MS analysis in presence of UDPGA; type: ADME; details: 0.25 h
# Sequence of UDP-glucuronosyltransferase 1A9 (O60656 whole entry): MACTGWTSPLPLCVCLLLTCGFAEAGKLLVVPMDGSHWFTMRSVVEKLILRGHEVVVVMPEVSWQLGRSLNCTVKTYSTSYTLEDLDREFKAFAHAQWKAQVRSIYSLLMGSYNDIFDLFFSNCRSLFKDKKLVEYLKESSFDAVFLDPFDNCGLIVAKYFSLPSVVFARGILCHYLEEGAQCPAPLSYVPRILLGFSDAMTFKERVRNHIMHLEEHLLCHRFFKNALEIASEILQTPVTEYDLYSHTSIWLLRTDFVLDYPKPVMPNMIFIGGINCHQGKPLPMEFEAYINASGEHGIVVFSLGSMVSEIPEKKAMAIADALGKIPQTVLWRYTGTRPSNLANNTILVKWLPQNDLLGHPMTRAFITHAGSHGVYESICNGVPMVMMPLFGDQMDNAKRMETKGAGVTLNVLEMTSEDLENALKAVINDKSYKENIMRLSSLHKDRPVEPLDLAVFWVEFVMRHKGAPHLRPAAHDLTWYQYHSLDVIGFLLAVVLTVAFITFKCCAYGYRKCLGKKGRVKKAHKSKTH
# Sequence of CYP2B6 (P20813 whole entry): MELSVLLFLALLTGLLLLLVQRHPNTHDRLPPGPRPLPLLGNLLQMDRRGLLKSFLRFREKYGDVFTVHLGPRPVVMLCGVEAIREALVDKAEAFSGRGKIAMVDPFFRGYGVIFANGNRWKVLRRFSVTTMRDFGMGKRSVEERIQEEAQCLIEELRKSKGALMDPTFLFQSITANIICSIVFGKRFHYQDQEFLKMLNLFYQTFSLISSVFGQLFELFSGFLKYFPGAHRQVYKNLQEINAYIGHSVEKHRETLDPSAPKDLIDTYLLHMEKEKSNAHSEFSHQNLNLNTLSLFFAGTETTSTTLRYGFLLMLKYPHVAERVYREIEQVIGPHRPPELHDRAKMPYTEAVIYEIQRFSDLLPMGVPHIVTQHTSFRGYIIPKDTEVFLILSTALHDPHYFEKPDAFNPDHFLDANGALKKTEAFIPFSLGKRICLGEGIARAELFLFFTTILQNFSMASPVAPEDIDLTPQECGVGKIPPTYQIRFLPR
"fold induction at 48 h, up to 30 µM (CYP2B6)",IC50 (Cytochrome P450 2C8),Drug metabolism (Liver microsome [4]),Drug metabolism (Cytochrome P450 2J2),S50 [5],Vmax [5],S50 (Liver microsome [6]),Vmax (Liver microsome [6]),Drug metabolism [7],Compound,Drug metabolism [1],Drug metabolism [2],Drug metabolism [3]
1.4,5.4 µM,metabolite_not_detected,metabolite_detected,,,,,,CC(C)(C)NC(=O)c1ccc(Oc2cc(F)c(CC(=O)O)cc2Cl)c(NS(=O)(=O)c2ccc(C3CC3)cc2Cl)c1 [VIDUPIPRANT],metabolite_detected,metabolite_not_detected,metabolite_not_detected
,,,,379.2 µM,39.1 pmol/min/mg,205.4 µM,43 pmol/min/mg,metabolite_detected,CC(C)(C)NC(=O)c1ccc(Oc2cc(F)c(CC(=O)O[C@@H]3O[C@H](C(=O)O)[C@@H](O)[C@H](O)[C@H]3O)cc2Cl)c(NS(=O)(=O)c2ccc(C3CC3)cc2Cl)c1,,,
